The record followed here is patent US8377455B2, “Biosurfactant composition produced by a new Bacillus licheniforms strain, uses and products thereof” (priority 2008, dated 2013).

Molecules are shown by their SMILES. Like-named read-outs stand apart in the source and are kept apart here.

For assay [1], the system named is P. aeruginosa PA14 biofilm. Type of assay: cell-based, Pseudomonas aeruginosa. The protocol: (§1) E. coli CFT073 and E. coli O157:H7 were grown on Luria Bertani agar (LB, EMD Chemicals Inc.), P. aeruginosa PA14 and S. aureus were grown on TSB agar. Susceptibility testing of metals was performed in Minimal Salts Vitamins Glucose (MSVG) according to Teitzel and Parsek (2003), while Polycide susceptibility testing was performed in Phosphate Buffered Saline (PBS).
(§2) AgNO3 (Sigma) and CuSO4 (Sigma) were dissolved in double distilled water (ddH2O) to 150 mM and 500 mM respectively. Polycide was diluted in PBS to 25%. Solutions were sterile filtered and stored at 4° C. Serial two-fold dilutions were performed to create the challenge plate.
(§3) Biofilms were grown in the Calgary Biofilm Device (CBD) as described above. Starting from cryogenic stock, the strain was streaked out twice on TSA, and an inoculum was prepared by suspending colonies from the secondary agar subculture in 0.9% saline to match a 1.0 McFarland standard. This standard inoculum was diluted 1/30 in LB broth.
(§4) 150 μL of this inoculum was transferred into each well of a 96-well plate, and the sterile peg lid of the CBD was inserted into the plate. The inoculated device was then incubated at 125 rpm, for 24 h at 37° C. and 95% relative humidity. In an alternative set of experiments, biofilms were grown for 48 h before silver exposure and spent medium was changed with fresh medium after 24 h.
Following this period of incubation, biofilms were rinsed once with 0.9% saline (200 μL/well) to remove loosely adherent planktonic cells. Biofilm formation was evaluated by breaking off four pegs from each device after it has been rinsed. Biofilms were disrupted from pegs into 200 μL/well of LB supplemented with 1% Tween 20 using an ultrasonic cleaner for a period of 10 min (Aquasonic model 250T, VWR Scientific, Mississauga, Canada) as described above. The disrupted biofilms were serially diluted in 0.9% saline and plated on LB agar for viable cell counting. An initial set of quality control assays were carried out to ascertain that the strain used in this study formed equivalent biofilm on the CBD pegs as described in Harrison (2008). […]

The test system of assay [2] is S. aureus ATCC 25923 biofilm. Kind of assay: High-throughput susceptibility testing of CBD biofilm to biocides/metals with or without V9T14. Type of assay: cell-based, Staphylococcus aureus. The conditions noted are these: 8 h exposure. As to the method: as §1, §2, §3
150 μL of this inoculum was transferred into each well of a 96-well plate, and the sterile peg lid of the CBD was inserted into the plate. […]
Following this period of incubation, biofilms were rinsed once with 0.9% saline (200 μL/well) to remove loosely adherent planktonic cells. Biofilm formation was evaluated by breaking off four pegs from each device after it has been rinsed. […]

Assay [3] relates to E. coli CFT073 biofilm. It is filed as cell-based, Escherichia coli. Particulars: for concentration for eradication of biofilm: 24 h exposure. As to the method:
as §1
Extracted V9T14 biosurfactant was stored under the chemical hood providing solvent evaporation until dryness. The biosurfactant powder was homogenized using a porcelain mortar and a pestle. V9T14 was dissolved in PBS and pH was adjusted to 7.5 with 1 N NaOH. Volume was adjusted to match a final concentration of 5000 μg/mL.
as §2, §3, §4
Following this period of incubation, biofilms were rinsed once with 0.9% saline (200 μL/well) to remove loosely adherent planktonic cells. Biofilm formation was evaluated by breaking off four pegs from each device after it has been rinsed. Biofilms were disrupted from pegs into 200 μL/well of LB supplemented with 1% Tween 20 using an ultrasonic cleaner for a period of 10 min (Aquasonic model 250T, VWR Scientific, Mississauga, Canada) as described above. The disrupted biofilms were serially diluted in 0.9% saline and plated on LB agar for viable cell counting. An initial set of quality control assays were carried out to ascertain that the strain used in this study formed equivalent biofilm on the CBD pegs as described in Harrison (2008).
(§5) The challenge plate of biocides, antibiotics and biosurfactant was made in a 96-well plate. Biocides were serially two-fold diluted in PBS and V9T14 biosurfactant was added to each well at the final concentration of 5 μL/mL. Antibiotics were similarly diluted in Muller-Hinton broth, while metals were diluted in MSVG.
Biofilms that have been grown on lids of the CBD and rinsed once in 0.9% saline were inserted in the challenge plates. Following the exposure time at 37° C., biofilms were rinsed once with 0.9% saline (200 μL/well) and then placed in a microtiter “recovery” plate that contained 200 μL/well of neutralizing medium (TSB supplemented with 1% Tween 20, 2.0 g/L reduced glutathione, 1.0 g/L L-histidine, 1.0 g/L L-cysteine). The recovery plate was sonicated for a period of 10 min (Aquasonic model 250T, VWR Scientific, Mississauga, Canada). The disrupted biofilms were serially diluted in 0.9% saline and plated on the appropriate agar medium for viable cell counting. Plates were then incubated at 37° C. overnight and finally enumerated.

Assay [4] relates to planktonic E. coli CFT073. It is filed as cell-based, Escherichia coli. As to the method: as §5, with “MSVG. When prepared, each challenge plate had 7 sterility control, 8 growth control, 11 wells containing 5 μL/mL of V9T14 biosurfactant, 11 different concentrations of single biocide (or metals) and 11 different concentrations of biocide (or metals) associated with 5 μL/mL of V9T14 biosurfactant.” for “MSVG.”
To define MBC of biocides, recovery plates were incubated at 37° C. for 24-48 h and the adsorbance (OD650 nm) was read in a microtiter plate reader.

Take `O=S(=O)([O-])[O-].[Cu+2]` [copper, cupric sulfate]: in assay [1], the “maximum increase of killing with V9T14” value is recorded as “about 2.2 log10”. In assay [2], the “maximum reduction of viable cell count with V9T14” value is “about 2.4 log10” and the “reduction of the concentration needed to bring biofilm below detectable count when V9T14 present” value was “about 95%”.
On to `O=[N+]([O-])[O-].[Ag+]` [silver, silver nitrate], for which the “concentration required to eradicate the biofilm” value in assay [1] (silver alone, 8 h exposure) was 0.469 mM; in assay [1] (silver with 5 μg/mL V9T14, 8 h exposure), 0.117 mM. Further, the “enhancement of killing activity by presence of V9T14” value in assay [3] (2 h exposure, 3.750 mM silver, 5 μg/mL V9T14) is “about 0.6 log10”; in assay [3] (8 h exposure, 0.015 mM silver (p=0.03)), “about 3.2 log10”. Also, the “silver concentration needed with V9T14 relative to silver alone (fold less)” value in assay [3] (biofilm reduced below detection limit) worked out at 258 fold. In addition, the results for the “concentration for eradication of biofilm” value in assay [3] (silver alone) and in assay [3] (silver with 5 μg/mL V9T14 added) were 7.5 mM and 0.029 mM, respectively. The “increase of killing efficacy by V9T14” value in assay [3] (solution prepared 48 h before, 4 h exposure (p=0.0007)) was “about 2.3 log10”. Moreover, the “metal concentration needed with V9T14 relative to silver alone (fold less)” value in assay [4] (5 μg/mL V9T14, 24 h) is given as 64 fold. Moreover, in assay [4] (silver alone, 24 h), the “concentration from which complete inhibition of growth was observed” value was determined as 7.5 mM.
